# Assay results reported in publication PMC5218480 (PLoS ONE, 2017).
# Test system: MV-4-11 cells
# Assay: Gene expression microarray analysis (Affymetrix PrimeView) and GSEA
# Format: cell-based, human
# Design: RFU PODN (11730768_x_at) / Fold change /veh PODN (11730768_x_at) / RFU LINC00158 (11744669_a_at) / Fold change /veh LINC00158 (11744669_a_at) / RFU DUSP10 (11751237_a_at) / Fold change /veh DUSP10 (11751237_a_at) / RFU ID3 (11757404_x_at) / Fold change /veh ID3 (11757404_x_at) / RFU PLEKHG5 (11737974_s_at) / Fold change /veh PLEKHG5 (11737974_s_at) / RFU LRRC4B (11730491_at) / Fold change /veh LRRC4B (11730491_at) / RFU GIMAP4 (11747438_a_at) / Fold change /veh GIMAP4 (11747438_a_at) / RFU KRT8 (11758183_x_at) / Fold change /veh KRT8 (11758183_x_at) / RFU CNN1 (11734310_a_at) / Fold change /veh CNN1 (11734310_a_at) / RFU VPS37D (11726825_at) / Fold change /veh VPS37D (11726825_at) / RFU C10orf10 (11716522_x_at) / Fold change /veh C10orf10 (11716522_x_at) / RFU KIR2DL2 /// KIR2DL4 /// KIR2DL5A /// KIR2DL5B /// KIR2DS1 /// KIR2DS2 /// KIR2DS3 /// KIR2DS4 /// KIR3DL3 /// KIR3DL3 /// KIR3DS1 (11738374_at) / Fold change /veh KIR2DL2 /// KIR2DL4 /// KIR2DL5A /// KIR2DL5B /// KIR2DS1 /// KIR2DS2 /// KIR2DS3 /// KIR2DS4 /// KIR3DL3 /// KIR3DL3 /// KIR3DS1 (11738374_at) / RFU C1QL1 (11718748_at) / Fold change /veh C1QL1 (11718748_at) / RFU TMPRSS4 (11747572_a_at) / Fold change /veh TMPRSS4 (11747572_a_at) / RFU HAMP (11756126_x_at) / Fold change /veh HAMP (11756126_x_at) / RFU RNFT2 (11725882_a_at) / Fold change /veh RNFT2 (11725882_a_at) / RFU NR4A2 (11747474_a_at) / Fold change /veh NR4A2 (11747474_a_at) / RFU ABCC12 (11746883_a_at) / Fold change /veh ABCC12 (11746883_a_at) / RFU TMEM136 (11760407_x_at) / Fold change /veh TMEM136 (11760407_x_at) / RFU CLDN22 /// WWC2 (11732394_at) / Fold change /veh CLDN22 /// WWC2 (11732394_at) / RFU HLA-DPB1 (11760878_x_at) / Fold change /veh HLA-DPB1 (11760878_x_at) / RFU SPINT1 (11716480_a_at) / Fold change /veh SPINT1 (11716480_a_at) / RFU GAP43 (11754022_s_at) / Fold change /veh GAP43 (11754022_s_at) / RFU A4GNT (11735810_at) / Fold change /veh A4GNT (11735810_at) / RFU PRB3 (11715151_x_at) / Fold change /veh PRB3 (11715151_x_at) / RFU TUBB4B (11761932_at) / Fold change /veh TUBB4B (11761932_at) / RFU CAPN14 (11732068_a_at) / Fold change /veh CAPN14 (11732068_a_at) / RFU TMCC2 (11721928_a_at) / Fold change /veh TMCC2 (11721928_a_at) / RFU IRGQ (11745062_a_at) / Fold change /veh IRGQ (11745062_a_at) / RFU FAM174B (11720279_a_at) / Fold change /veh FAM174B (11720279_a_at) / RFU TMPRSS4 (11748680_a_at) / Fold change /veh TMPRSS4 (11748680_a_at) / RFU FAM212B (11763350_a_at) / Fold change /veh FAM212B (11763350_a_at) / RFU PLEKHG5 (11743358_a_at) / Fold change /veh PLEKHG5 (11743358_a_at) / RFU ZSCAN30 (11745921_a_at) / Fold change /veh ZSCAN30 (11745921_a_at) / RFU CMKLR1 (11741424_a_at) / Fold change /veh CMKLR1 (11741424_a_at) / RFU LOC101060620 /// MAPK8IP1 (11723275_at) / Fold change /veh LOC101060620 /// MAPK8IP1 (11723275_at) / RFU SPTSSB (11747773_x_at) / Fold change /veh SPTSSB (11747773_x_at) / RFU PRSS12 (11739890_at) / Fold change /veh PRSS12 (11739890_at) / RFU BIN1 (11741810_x_at) / Fold change /veh BIN1 (11741810_x_at) / RFU WNT11 (11732464_a_at) / Fold change /veh WNT11 (11732464_a_at) / RFU C10orf10 (11716521_a_at) / Fold change /veh C10orf10 (11716521_a_at) / RFU C5orf56 (11738089_at) / Fold change /veh C5orf56 (11738089_at) / RFU CYB561 (11721691_x_at) / Fold change /veh CYB561 (11721691_x_at) / RFU ANKRD19P (11752326_a_at) / Fold change /veh ANKRD19P (11752326_a_at) / RFU OR2T12 /// OR2T33 /// OR2T8 (11738714_s_at) / Fold change /veh OR2T12 /// OR2T33 /// OR2T8 (11738714_s_at) / RFU VCAN (11748164_a_at) / Fold change /veh VCAN (11748164_a_at) / RFU JSRP1 (11732532_at) / Fold change /veh JSRP1 (11732532_at) / RFU KRTAP10-11 (11738290_x_at) / Fold change /veh KRTAP10-11 (11738290_x_at) / RFU MYO3A (11730013_a_at) / Fold change /veh MYO3A (11730013_a_at) / RFU EBF3 (11725865_a_at) / Fold change /veh EBF3 (11725865_a_at) / RFU CAMK2N1 (11719241_x_at) / Fold change /veh CAMK2N1 (11719241_x_at) / RFU C5orf56 (11738088_a_at) / Fold change /veh C5orf56 (11738088_a_at) / RFU OLFML3 (11715873_a_at) / Fold change /veh OLFML3 (11715873_a_at) / RFU LOC100653217 /// NTM (11731650_a_at) / Fold change /veh LOC100653217 /// NTM (11731650_a_at) / RFU MAPK11 (11762145_a_at) / Fold change /veh MAPK11 (11762145_a_at) / RFU FIZ1 (11724087_x_at) / Fold change /veh FIZ1 (11724087_x_at) / RFU OASL (11726364_x_at) / Fold change /veh OASL (11726364_x_at) / RFU SOX15 (11748057_x_at) / Fold change /veh SOX15 (11748057_x_at) / RFU CD79A (11719716_a_at) / Fold change /veh CD79A (11719716_a_at) / RFU HIST1H1D (11736915_at) / Fold change /veh HIST1H1D (11736915_at) / RFU CASKIN2 (11723855_a_at) / Fold change /veh CASKIN2 (11723855_a_at) / RFU LOC730098 (11760151_x_at) / Fold change /veh LOC730098 (11760151_x_at) / RFU OR4N2 (11742367_at) / Fold change /veh OR4N2 (11742367_at) / RFU PRRT2 (11749266_a_at) / Fold change /veh PRRT2 (11749266_a_at) / RFU SNX32 (11753110_a_at) / Fold change /veh SNX32 (11753110_a_at) / RFU CDHR5 (11726645_a_at) / Fold change /veh CDHR5 (11726645_a_at) / RFU RCAN1 (11760418_a_at) / Fold change /veh RCAN1 (11760418_a_at) / RFU FAM167A (11723789_a_at) / Fold change /veh FAM167A (11723789_a_at) / RFU FAM26E (11764081_at) / Fold change /veh FAM26E (11764081_at) / RFU ISYNA1 (11749810_s_at) / Fold change /veh ISYNA1 (11749810_s_at) / RFU ACY1 (11761880_at) / Fold change /veh ACY1 (11761880_at) / RFU 11764098_at / Fold change /veh 11764098_at / RFU SAMD14 (11745864_x_at) / Fold change /veh SAMD14 (11745864_x_at) / RFU NPB (11741838_a_at) / Fold change /veh NPB (11741838_a_at) / RFU TMPRSS6 (11731388_a_at) / Fold change /veh TMPRSS6 (11731388_a_at) / RFU KRTAP10-2 (11738614_at) / Fold change /veh KRTAP10-2 (11738614_at) / RFU ARHGAP8 /// PRR5-ARHGAP8 (11727945_x_at) / Fold change /veh ARHGAP8 /// PRR5-ARHGAP8 (11727945_x_at) / RFU KRTAP5-7 /// NADSYN1 (11734609_at) / Fold change /veh KRTAP5-7 /// NADSYN1 (11734609_at) / RFU RASL12 (11751679_a_at) / Fold change /veh RASL12 (11751679_a_at) / RFU CDKN2B (11736163_a_at) / Fold change /veh CDKN2B (11736163_a_at) / RFU PRF1 (11729649_at) / Fold change /veh PRF1 (11729649_at) / RFU, ZNF638 /// ZNF638-IT1 / Fold change vs veh, ZNF638 /// ZNF638-IT1 / RFU, PANK3 / Fold change vs veh, PANK3 / RFU, SH3YL1 / Fold change vs veh, SH3YL1 / RFU, ZEB2 / Fold change vs veh, ZEB2 / RFU, NRIP1 / Fold change vs veh, NRIP1 / RFU, PTTG1IP / Fold change vs veh, PTTG1IP / RFU, CAPN2 / Fold change vs veh, CAPN2 / RFU, MED14 / Fold change vs veh, MED14 / RFU, SNORA58 / Fold change vs veh, SNORA58 / RFU, C1orf63 / Fold change vs veh, C1orf63 / RFU, LRRFIP1 / Fold change vs veh, LRRFIP1 / RFU, NDUFAF7 / Fold change vs veh, NDUFAF7 / RFU, SLC12A2 / Fold change vs veh, SLC12A2 / RFU, IBTK / Fold change vs veh, IBTK / RFU, ESF1 / Fold change vs veh, ESF1 / Fold change vs veh, TMEM50B / RFU, TAOK1 / Fold change vs veh, TAOK1 / RFU, ACBD3 / Fold change vs veh, ACBD3 / RFU, TMA16 / Fold change vs veh, TMA16 / RFU, RWDD3 / Fold change vs veh, RWDD3 / RFU, BCAT1 / Fold change vs veh, BCAT1 / RFU, EDEM3 / Fold change vs veh, EDEM3 / RFU, TMEM33 / Fold change vs veh, TMEM33 / RFU, WDR75 / Fold change vs veh, WDR75 / RFU, AHCTF1 / Fold change vs veh, AHCTF1 / RFU, TFRC / Fold change vs veh, TFRC / RFU, ZDHHC17 / Fold change vs veh, ZDHHC17 / RFU, NOM1 / Fold change vs veh, NOM1 / RFU, ARL8B / Fold change vs veh, ARL8B / RFU, ZBTB11 / Fold change vs veh, ZBTB11 / RFU, TAMM41 / Fold change vs veh, TAMM41 / RFU, KIAA1704 /// LOC100996395 / Fold change vs veh, KIAA1704 /// LOC100996395 / RFU, ING1 / Fold change vs veh, ING1 / RFU, TRMT61B / Fold change vs veh, TRMT61B / RFU, FUBP3 / Fold change vs veh, FUBP3 / RFU, TP53 / Fold change vs veh, TP53 / RFU, TNKS2 / Fold change vs veh, TNKS2 / RFU, ZFP14 / Fold change vs veh, ZFP14 / RFU, ACTR2 / Fold change vs veh, ACTR2 / RFU, PPP3R1 / Fold change vs veh, PPP3R1 / RFU, PIK3R1 / Fold change vs veh, PIK3R1 / RFU, HNRNPA1 / Fold change vs veh, HNRNPA1 / RFU, RNF170 / Fold change vs veh, RNF170 / RFU, ZNF28 / Fold change vs veh, ZNF28 / RFU, RNGTT / Fold change vs veh, RNGTT / RFU, OGT / Fold change vs veh, OGT / RFU, BRD1 / Fold change vs veh, BRD1 / RFU, MARS / Fold change vs veh, MARS / RFU, ZNF655 / Fold change vs veh, ZNF655 / RFU, FAHD1 / Fold change vs veh, FAHD1 / RFU, BDP1 / Fold change vs veh, BDP1 / RFU, LRRCC1 / Fold change vs veh, LRRCC1 / RFU, ARID1A / Fold change vs veh, ARID1A / RFU, ZNF146 / Fold change vs veh, ZNF146 / RFU, ZNF330 / Fold change vs veh, ZNF330 / RFU, GPN3 / Fold change vs veh, GPN3 / RFU, C9orf123 / Fold change vs veh, C9orf123 / RFU, N4BP2L2 / Fold change vs veh, N4BP2L2 / RFU, ARFIP1 / Fold change vs veh, ARFIP1 / RFU, FAM179B / Fold change vs veh, FAM179B / RFU, BCL10 / Fold change vs veh, BCL10 / RFU, UHRF1BP1L / Fold change vs veh, UHRF1BP1L / RFU, BET1 / Fold change vs veh, BET1 / RFU, CNOT2 / Fold change vs veh, CNOT2 / RFU, ZNF268 / Fold change vs veh, ZNF268 / Fold change vs veh, ZNF507 / RFU, DGCR2 / Fold change vs veh, DGCR2 / RFU, WDSUB1 / Fold change vs veh, WDSUB1 / Fold change vs veh, HSP90B1 /// MIR3652 / RFU, ADSS / Fold change vs veh, ADSS / RFU, GK / Fold change vs veh, GK / RFU, ZNF148 / Fold change vs veh, ZNF148 / RFU, TAF9 / Fold change vs veh, TAF9 / RFU, SLC1A5 / Fold change vs veh, SLC1A5 / RFU, SLMO2 / Fold change vs veh, SLMO2 / RFU, ABCC4 / Fold change vs veh, ABCC4 / RFU, LOC101060439 /// RAP1B / Fold change vs veh, LOC101060439 /// RAP1B / RFU, RFX7 / Fold change vs veh, RFX7 / RFU, GTPBP10 / Fold change vs veh, GTPBP10 / RFU, CNEP1R1 / Fold change vs veh, CNEP1R1 / RFU, BIVM-ERCC5 /// ERCC5 / Fold change vs veh, BIVM-ERCC5 /// ERCC5 / RFU, ILF3 / Fold change vs veh, ILF3 / RFU 11762660_at / Fold change /veh 11762660_at / RFU VCAN (11757783_s_at) / Fold change /veh VCAN (11757783_s_at) / RFU DDX43 (11728927_at) / Fold change /veh DDX43 (11728927_at) / RFU KRT8 (11758188_x_at) / Fold change /veh KRT8 (11758188_x_at) / RFU NKD1 (11759106_at) / Fold change /veh NKD1 (11759106_at) / RFU SRD5A1 (11742802_a_at) / Fold change /veh SRD5A1 (11742802_a_at) / RFU TPSAB1 /// TPSB2 (11721975_s_at) / Fold change /veh TPSAB1 /// TPSB2 (11721975_s_at) / RFU GSTM3 (11746129_a_at) / Fold change /veh GSTM3 (11746129_a_at) / RFU IL23R (11737362_x_at) / Fold change /veh IL23R (11737362_x_at) / RFU TMEM51 (11727254_a_at) / Fold change /veh TMEM51 (11727254_a_at) / RFU PIWIL2 (11732686_x_at) / Fold change /veh PIWIL2 (11732686_x_at) / RFU ORM1 (11744905_x_at) / Fold change /veh ORM1 (11744905_x_at) / RFU CCDC152 (11743942_at) / Fold change /veh CCDC152 (11743942_at) / RFU ECM1 (11717891_a_at) / Fold change /veh ECM1 (11717891_a_at) / RFU IL23R (11748794_a_at) / Fold change /veh IL23R (11748794_a_at) / RFU TNFAIP8L3 (11732012_x_at) / Fold change /veh TNFAIP8L3 (11732012_x_at) / RFU MBOAT4 (11741988_at) / Fold change /veh MBOAT4 (11741988_at) / RFU 11764193_at / Fold change /veh 11764193_at / RFU TMEM53 (11763286_at) / Fold change /veh TMEM53 (11763286_at) / RFU MAGEB2 (11727129_at) / Fold change /veh MAGEB2 (11727129_at) / RFU TMEM200A (11744735_a_at) / Fold change /veh TMEM200A (11744735_a_at) / RFU CCDC152 (11751479_a_at) / Fold change /veh CCDC152 (11751479_a_at) / RFU FAM211A (11726209_a_at) / Fold change /veh FAM211A (11726209_a_at) / RFU RGS16 (11746705_a_at) / Fold change /veh RGS16 (11746705_a_at) / RFU VCAN (11755009_s_at) / Fold change /veh VCAN (11755009_s_at) / RFU RHOB (11743442_s_at) / Fold change /veh RHOB (11743442_s_at) / RFU RGS16 (11720943_a_at) / Fold change /veh RGS16 (11720943_a_at) / RFU RGS16 (11720944_at) / Fold change /veh RGS16 (11720944_at) / RFU, VPS4B / Fold change vs veh, VPS4B / RFU, CREB1 / Fold change vs veh, CREB1 / RFU, DNAJC13 / Fold change vs veh, DNAJC13 / RFU, GNAQ / Fold change vs veh, GNAQ / RFU, CDK5R1 / Fold change vs veh, CDK5R1 / RFU, ZRANB3 / Fold change vs veh, ZRANB3 / RFU, CUL4A / Fold change vs veh, CUL4A / RFU, CCNY / Fold change vs veh, CCNY / RFU, UFL1 / Fold change vs veh, UFL1 / RFU, COG3 / Fold change vs veh, COG3 / RFU, DIAPH2 / Fold change vs veh, DIAPH2 / RFU, SKA2 / Fold change vs veh, SKA2 / RFU, AFF3 / Fold change vs veh, AFF3 / RFU, LMF1 / Fold change vs veh, LMF1 / RFU, IPO11 / Fold change vs veh, IPO11 / RFU, DFFB / Fold change vs veh, DFFB / RFU, FOXP1 / Fold change vs veh, FOXP1 / RFU, CARD8 / Fold change vs veh, CARD8 / RFU, STRN3 / Fold change vs veh, STRN3 / RFU, ADK / Fold change vs veh, ADK / RFU, RASSF2 / Fold change vs veh, RASSF2 / RFU, WIPF1 / Fold change vs veh, WIPF1 / RFU, LARP1B / Fold change vs veh, LARP1B / RFU, RASA1 / Fold change vs veh, RASA1 / RFU, RB1 / Fold change vs veh, RB1 / RFU, PPFIA1 / Fold change vs veh, PPFIA1 / RFU, MAT2A / Fold change vs veh, MAT2A / RFU, CCT5 / Fold change vs veh, CCT5 / RFU, WDR92 / Fold change vs veh, WDR92 / RFU, CUX1 / Fold change vs veh, CUX1 / RFU, TTC7A / Fold change vs veh, TTC7A / RFU, TMEM135 / Fold change vs veh, TMEM135 / RFU, DEPTOR / Fold change vs veh, DEPTOR / RFU, CPM / Fold change vs veh, CPM / RFU, DNAJB6 / Fold change vs veh, DNAJB6 / RFU, CACNA2D3 / Fold change vs veh, CACNA2D3 / RFU, DTX4 / Fold change vs veh, DTX4 / RFU, TFCP2 / Fold change vs veh, TFCP2 / RFU, GMCL1 /// GMCL1P1 / Fold change vs veh, GMCL1 /// GMCL1P1 / RFU, AEBP2 / Fold change vs veh, AEBP2 / RFU, SNHG1 /// SNORD22 /// SNORD25 /// SNORD26 /// SNORD27 /// SNORD28 /// SNORD29 /// SNORD31 / Fold change vs veh, SNHG1 /// SNORD22 /// SNORD25 /// SNORD26 /// SNORD27 /// SNORD28 /// SNORD29 /// SNORD31 / Fold change (Aza/veh), C12orf56 (ProbeSet 11735607_a_at) / Fold change (ACY-1035/veh), C12orf56 (ProbeSet 11735607_a_at) / Fold change (Aza/veh), FGFR1OP (ProbeSet 11751329_s_at) / Fold change (ACY-1035/veh), FGFR1OP (ProbeSet 11751329_s_at) / Fold change (Aza/veh), VPS36 (ProbeSet 11739960_a_at) / Fold change (ACY-1035/veh), VPS36 (ProbeSet 11739960_a_at) / RFU SYPL1 (11715823_x_at) / Fold change /veh SYPL1 (11715823_x_at) / RFU IGFBP7 (11715501_s_at) / Fold change /veh IGFBP7 (11715501_s_at) / RFU REEP3 (11722064_at) / Fold change /veh REEP3 (11722064_at) / RFU IGLL1 (11728026_x_at) / Fold change /veh IGLL1 (11728026_x_at): dose or concentration left out as unconfirmed
# Settings: ProbeSet 11732277_a_at; LIST D
structure (smiles),measurement,value
Nc1ncn([C@@H]2O[C@H](CO)[C@@H](O)[C@H]2O)c(=O)n1 [azacitidine],"Fold change vs veh, FOXP1",0.59
